Laboratory results taken from PubChem BioAssay (NCI).
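1) Cells in 96-well plates. 2) Compound, 48 h, 5 concentrations. 3) Linear interpolation between surrounding doses. 4) Unreached endpoint = highest concentration. GI50: concentration for 50% inhibition of growth. Definition used: TGI = concentration required for complete inhibition of growth.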

Assays:
Assay in all cases: NCI-60 cell line screen, 48 h
SF-539 CNS = test system: SF-539 CNS
HT29 colon = test system: HT29 colon
MCF7 breast = test system: MCF7 breast
SNB-19 CNS = test system: SNB-19 CNS
UACC-62 melanoma = test system: UACC-62 melanoma
COLO 205 colon = test system: COLO 205 colon
SK-MEL-28 melanoma = test system: SK-MEL-28 melanoma
MDA-N = test system: MDA-N
HOP-62 NSCLC = test system: HOP-62 NSCLC
UACC-257 melanoma = test system: UACC-257 melanoma
SR leukemia = test system: SR leukemia

| Compound | TGI (SF-539 CNS) [µM] | TGI (HT29 colon) [µM] | TGI (MCF7 breast) [µM] | TGI (SNB-19 CNS) [µM] | TGI (UACC-62 melanoma) [µM] | TGI (COLO 205 colon) [µM] | TGI (SK-MEL-28 melanoma) [µM] | TGI (MDA-N) [µM] | TGI (HOP-62 NSCLC) [µM] | TGI (UACC-257 melanoma) [µM] | TGI (SR leukemia) [µM] | GI50 (SNB-19 CNS) [µM] |
| --- | --- | --- | --- | --- | --- | --- | --- | --- | --- | --- | --- | --- |
| CC(C)NC(=O)CN1CCN(c2c(O)c3c(c(O)c2Cl)C(=O)C=CC3=O)CC1 | 3.66 | 2.58 | 3.47 | 26.9 | 3.22 | 2.89 | 3.17 | 3.43 | 18.6 | 3.25 | – | – |
| Cc1ccc2c(c1)-c1nc(N)c(C#N)c(-c3ccccc3)c1CCS2(=O)=O | – | > 100 | – | 67.7 | > 100 | > 100 | > 100 | > 100 | > 100 | > 100 | – | – |
| CC(=O)OCC1OC(n2c(-c3ccc(C)cc3)cc(-c3ccccc3)c(C#N)c2=S)C(OC(C)=O)C(OC(C)=O)C1OC(C)=O (configuration not stated) | > 100 | > 100 | > 100 | > 100 | > 100 | > 100 | > 100 | > 100 | > 100 | – | > 100 | – |
| CCC(C#N)NCc1cccc(CNC(C#N)CC)c1 (configuration not stated) | > 100 | > 100 | > 100 | > 100 | > 100 | > 100 | > 100 | > 100 | – | > 100 | – | – |
| O=C(Nc1nc(C23CC4CC(CC(C4)C2)C3)cs1)c1cc2ccccc2oc1=O | > 100 | > 100 | > 100 | > 100 | – | > 100 | > 100 | > 100 | > 100 | > 100 | > 100 | – |
| COCN1C(=O)[C@@H]2CCCN2C(=O)c2cc(N)ccc21 | > 100 | > 100 | > 100 | > 100 | > 100 | 8.86 | > 100 | > 100 | > 100 | > 100 | – | – |
| CC(=O)O[C@H]1C(=O)[C@@]2(C)C(C(OC(=O)c3ccccc3)C3[C@@H](O)C(OC(=O)[C@@H](O)[C@H](NC(=O)c4ccccc4)c4ccc(C(F)(F)F)cc4)C(C)=C1C3(C)C)[C@]1(OC(C)=O)CO[C@@H]1C[C@@H]2O (some centres not stated) | > 25 | > 25 | – | > 25 | > 25 | > 25 | > 25 | – | > 25 | > 25 | > 25 | – |
| COc1ccc(/C=C2\CCC(C)C3=C2N=c2s/c(=C/c4cccc(Br)c4)c(=O)n2C3c2ccc(OC)c(OC)c2)cc1OC (configuration not stated) | – | > 100 | > 100 | > 100 | > 100 | – | > 100 | > 100 | > 100 | > 100 | > 100 | – |
| COc1cc(/C=c2\sc3n(c2=O)C(c2ccc(Cl)cc2)C2=C(CCCC2C)N=3)cc(OC)c1OC (configuration not stated) | – | > 100 | > 100 | > 100 | > 100 | – | > 100 | > 100 | > 100 | > 100 | > 100 | – |
| Cc1cc2c([nH]c3ccccc32)c2c1OC(C)(C)C1C3CC(C)(C)Oc4c(C)cc5c6ccccc6n(c5c43)C21 (configuration not stated) | > 100 | > 100 | – | > 100 | > 100 | > 100 | > 100 | – | > 100 | > 100 | > 100 | – |
| Cc1cc(S(=O)(=O)Nc2nc3ccccc3c(=O)n2N)c(S)cc1Cl | > 100 | > 100 | > 100 | 47.2 | 49.2 | > 100 | > 100 | > 100 | 79.7 | > 100 | – | 15.7 |
| CN(C)c1nc(Cl)c2c(-c3ccccc3)c(-c3ccccc3)oc2n1 | > 100 | > 100 | > 100 | > 100 | > 100 | > 100 | > 100 | – | – | > 100 | > 100 | – |
| CCN(CC)C(=O)C(C)n1cc(C)c(=O)[nH]c1=O (configuration not stated) | > 100 | > 100 | – | > 100 | > 100 | > 100 | > 100 | – | > 100 | – | – | – |
| COI1NC(=O)c2ccccc21 | – | > 100 | > 100 | > 100 | > 100 | > 100 | > 100 | > 100 | > 100 | – | > 100 | – |
| COc1cc(CNNC(N)=S)cc(OC)c1OC | > 100 | > 100 | > 100 | > 100 | – | > 100 | > 100 | > 100 | > 100 | > 100 | > 100 | – |
| O=C(O)CN1C(=O)C(Cc2ccc(O)cc2)N=C(c2cccc(O)c2)c2ccccc21 (configuration not stated) | > 100 | > 100 | > 100 | > 100 | > 100 | – | > 100 | 26 | > 100 | > 100 | > 100 | – |
| O=C(NNC(=S)NC1CCCCC1)c1csc(NC(=S)NC2CCCCC2)n1 | 15.6 | > 100 | > 100 | 44.8 | 22.6 | 14.1 | – | – | 35.2 | 11.8 | > 100 | – |
| CC(C)(C)OC(=O)N1C(c2cccnc2)=CC[C@H]2C3CC=C(c4cccnc4)[C@@]3(C)CC[C@@H]21 (some centres not stated) | 14.8 | 11.8 | 11.1 | 17.2 | 8.31 | 3.19 | – | 9.2 | 16.3 | 10.6 | 22.2 | – |
| CC(=O)Nc1c(C)cc2c(nc3n2CCC3O)c1[N+](=O)[O-] (configuration not stated) | > 100 | > 100 | > 100 | > 100 | > 100 | > 100 | > 100 | > 100 | – | > 100 | – | – |
